From patent publication US8653092B2, “Tetrahydro-pyrido-pyrimidine derivatives” (Novartis AG, priority 2010, dated 2014)

Columns and labels:
PI3K alpha = PI3K alpha (Homo sapiens (Human), UniProt P42336); assay: Enzymatic PI3K alpha isoform inhibition (lipid kinase, Kinase-Glo luminescence); type: biochemical; details: enzymatic assay
PI3K delta = PI3K delta (Homo sapiens (Human), UniProt O00329); assay: Enzymatic PI3K delta isoform inhibition (lipid kinase, Kinase-Glo luminescence); type: biochemical; details: enzymatic assay
Sequence of PI3K delta (O00329 other isoform, or with tags, fused parts or gaps linker GGGGGG): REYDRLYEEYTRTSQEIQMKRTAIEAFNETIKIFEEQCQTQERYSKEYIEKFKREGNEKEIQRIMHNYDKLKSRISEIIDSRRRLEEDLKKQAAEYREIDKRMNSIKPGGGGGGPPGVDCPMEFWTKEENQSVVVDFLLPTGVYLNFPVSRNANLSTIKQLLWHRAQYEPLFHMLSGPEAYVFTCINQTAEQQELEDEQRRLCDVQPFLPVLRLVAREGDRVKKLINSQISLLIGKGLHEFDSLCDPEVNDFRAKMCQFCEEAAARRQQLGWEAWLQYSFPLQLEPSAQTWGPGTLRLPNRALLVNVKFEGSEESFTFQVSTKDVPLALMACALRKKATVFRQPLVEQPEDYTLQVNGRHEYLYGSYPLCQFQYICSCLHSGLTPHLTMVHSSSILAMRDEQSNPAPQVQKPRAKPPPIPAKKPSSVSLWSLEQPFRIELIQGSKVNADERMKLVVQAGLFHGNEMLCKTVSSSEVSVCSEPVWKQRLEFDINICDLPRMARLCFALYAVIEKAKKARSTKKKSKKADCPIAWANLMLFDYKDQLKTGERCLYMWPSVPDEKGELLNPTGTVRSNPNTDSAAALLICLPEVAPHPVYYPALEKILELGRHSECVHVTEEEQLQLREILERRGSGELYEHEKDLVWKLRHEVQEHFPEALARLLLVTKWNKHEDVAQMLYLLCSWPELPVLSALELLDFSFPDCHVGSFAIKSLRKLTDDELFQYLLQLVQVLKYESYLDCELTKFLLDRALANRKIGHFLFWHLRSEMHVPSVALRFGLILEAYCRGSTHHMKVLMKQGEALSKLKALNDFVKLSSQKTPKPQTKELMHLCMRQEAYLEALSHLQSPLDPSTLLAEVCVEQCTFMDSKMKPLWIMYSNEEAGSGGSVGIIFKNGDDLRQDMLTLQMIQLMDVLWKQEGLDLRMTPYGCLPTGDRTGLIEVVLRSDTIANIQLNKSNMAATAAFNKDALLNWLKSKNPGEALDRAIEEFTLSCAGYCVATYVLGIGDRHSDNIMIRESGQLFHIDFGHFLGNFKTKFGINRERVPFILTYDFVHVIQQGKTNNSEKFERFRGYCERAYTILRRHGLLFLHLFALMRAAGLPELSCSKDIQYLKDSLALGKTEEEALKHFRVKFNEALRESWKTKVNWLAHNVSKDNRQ

Sequence of PI3K alpha (P42336 other isoform, or with tags, fused parts or gaps): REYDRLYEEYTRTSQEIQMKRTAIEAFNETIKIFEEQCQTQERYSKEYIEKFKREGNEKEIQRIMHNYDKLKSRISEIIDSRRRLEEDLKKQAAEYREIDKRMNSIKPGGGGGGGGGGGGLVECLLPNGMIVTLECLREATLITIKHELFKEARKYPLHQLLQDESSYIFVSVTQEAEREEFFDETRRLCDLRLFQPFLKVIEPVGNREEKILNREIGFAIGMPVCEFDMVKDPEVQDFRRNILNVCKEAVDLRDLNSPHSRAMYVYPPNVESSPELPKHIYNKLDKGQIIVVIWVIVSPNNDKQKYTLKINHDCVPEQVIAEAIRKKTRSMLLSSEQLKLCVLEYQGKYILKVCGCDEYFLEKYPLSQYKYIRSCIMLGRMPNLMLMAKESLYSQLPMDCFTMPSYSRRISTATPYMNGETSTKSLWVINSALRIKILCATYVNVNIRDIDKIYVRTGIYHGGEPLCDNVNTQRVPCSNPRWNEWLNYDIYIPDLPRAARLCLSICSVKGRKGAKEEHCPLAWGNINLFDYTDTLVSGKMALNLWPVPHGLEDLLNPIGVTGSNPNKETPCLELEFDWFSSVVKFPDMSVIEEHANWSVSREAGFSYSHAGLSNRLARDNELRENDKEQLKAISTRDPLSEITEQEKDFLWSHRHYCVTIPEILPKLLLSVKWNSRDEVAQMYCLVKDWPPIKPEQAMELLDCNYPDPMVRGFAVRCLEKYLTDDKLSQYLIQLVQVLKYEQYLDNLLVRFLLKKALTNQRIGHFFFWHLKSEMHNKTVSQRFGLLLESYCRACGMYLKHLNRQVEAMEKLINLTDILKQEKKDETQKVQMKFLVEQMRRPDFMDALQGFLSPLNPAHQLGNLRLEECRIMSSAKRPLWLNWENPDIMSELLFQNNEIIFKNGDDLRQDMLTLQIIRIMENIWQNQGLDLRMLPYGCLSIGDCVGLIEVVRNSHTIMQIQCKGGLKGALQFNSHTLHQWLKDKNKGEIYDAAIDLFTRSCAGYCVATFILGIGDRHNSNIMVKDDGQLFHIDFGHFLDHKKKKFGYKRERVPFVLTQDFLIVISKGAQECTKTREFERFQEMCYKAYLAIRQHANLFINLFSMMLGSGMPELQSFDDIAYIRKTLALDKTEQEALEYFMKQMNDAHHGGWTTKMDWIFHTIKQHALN

Structure (SMILES) | IC50 (PI3K alpha) [nM] | IC50 (PI3K delta) [nM]
COc1ncc(N2CCc3ncnc(O[C@H]4CCN(C(=O)c5ccc(=O)[nH]c5)C4)c3C2)cc1C [Example 19, 5-{(S)-3-[6-(6-Methoxy-5-methyl-pyridin-3-yl)-5,6,7,8-tetrahydro-pyrido[4,3-d]pyrimidin-4-yloxy]-pyrrolidine-1-carbonyl}-1H-pyridin-2-one] | 3060 | 33
COc1cc(N2CCc3ncnc(O[C@H]4CCN(C(=O)c5cocn5)C4)c3C2)cnc1OC [Example 21, {(S)-3-[6-(5,6-Dimethoxy-pyridin-3-yl)-5,6,7,8-tetrahydro-pyrido[4,3-d]pyrimidin-4-yloxy]-pyrrolidin-1-yl}-oxazol-4-yl-methanone] | 320 | 8
COc1cc(N2CCc3ncnc(O[C@H]4CCN(C(=O)c5cnco5)C4)c3C2)cnc1OC [Example 22, {(S)-3-[6-(5,6-Dimethoxy-pyridin-3-yl)-5,6,7,8-tetrahydro-pyrido[4,3-d]pyrimidin-4-yloxy]-pyrrolidin-1-yl}-oxazol-5-yl-methanone] | 580 | 8
COc1cc(N2CCc3ncnc(O[C@H]4CCN(C(=O)c5coc(C)n5)C4)c3C2)cnc1OC [Example 23, {(S)-3-[6-(5,6-Dimethoxy-pyridin-3-yl)-5,6,7,8-tetrahydro-pyrido[4,3-d]pyrimidin-4-yloxy]-pyrrolidin-1-yl}-(2-methyl-oxazol-4-yl)-methanone] | 129 | 10
COc1cc(N2CCc3ncnc(O[C@H]4CCN(C(=O)C5CCOC(C)(C)C5)C4)c3C2)cnc1OC (stereo partly drawn) [Example 24, {(S)-3-[6-(5,6-Dimethoxy-pyridin-3-yl)-5,6,7,8-tetrahydro-pyrido[4,3-d]pyrimidin-4-yloxy]-pyrrolidin-1-yl}-(2,2-dimethyl-tetrahydro-pyran-4-yl)-methanone] | 374 | 9
COc1cc(N2CCc3ncnc(O[C@H]4CCN(C(=O)c5oc(C)nc5C)C4)c3C2)cnc1OC [Example 25, {(S)-3-[6-(5,6-Dimethoxy-pyridin-3-yl)-5,6,7,8-tetrahydro-pyrido[4,3-d]pyrimidin-4-yloxy]-pyrrolidin-1-yl}-(2,4-dimethyl-oxazol-5-yl)-methanone] | 820 | 26
COc1cc(N2CCc3ncnc(O[C@H]4CCN(C(=O)C5CCC(F)(F)CC5)C4)c3C2)cnc1OC [Example 26, (4,4-Difluoro-cyclohexyl)-{(S)-3-[6-(5,6-dimethoxy-pyridin-3-yl)-5,6,7,8-tetrahydro-pyrido[4,3-d]pyrimidin-4-yloxy]-pyrrolidin-1-yl}-methanone] | 368 | 21
COc1ncc(N2CCc3ncnc(O[C@H]4CCN(C(=O)CC5CCOCC5)C4)c3C2)cc1C#N [Example 27, 2-Methoxy-5-{4-[(S)-1-(2-tetrahydro-pyran-4-yl-acetyl)-pyrrolidin-3-yloxy]-7,8-dihydro-5H-pyrido[4,3-d]pyrimidin-6-yl}-nicotinonitrile] | 3410 | 40
COc1ncc(N2CCc3ncnc(O[C@H]4CCN(C(=O)C5CCOC(C)(C)C5)C4)c3C2)cc1C#N (stereo partly drawn) [Example 29, 5-{4-[(S)-1-(2,2-Dimethyl-tetrahydro-pyran-4-carbonyl)-pyrrolidin-3-yloxy]-7,8-dihydro-5H-pyrido[4,3-d]pyrimidin-6-yl}-2-methoxy-nicotinonitrile] | 2580 | 11
COc1ncc(N2CCc3ncnc(O[C@H]4CCN(C(=O)c5ncoc5C)C4)c3C2)cc1C [Example 30, {(S)-3-[6-(6-Methoxy-5-methyl-pyridin-3-yl)-5,6,7,8-tetrahydro-pyrido[4,3-d]pyrimidin-4-yloxy]-pyrrolidin-1-yl}-(5-methyl-oxazol-4-yl)-methanone] | 2830 | 40
COc1ncc(N2CCc3ncnc(O[C@H]4CCN(C(=O)c5cnoc5C)C4)c3C2)cc1C [Example 31, {(S)-3-[6-(6-Methoxy-5-methyl-pyridin-3-yl)-5,6,7,8-tetrahydro-pyrido[4,3-d]pyrimidin-4-yloxy]-pyrrolidin-1-yl}-(5-methyl-isoxazol-4-yl)-methanone] | 3020 | 21
